Assay results published in patent publication US20100267561A1, “HERBICIDAL PYRIDAZINONE DERIVATIVES” (priority 2007, published 2010).

Columns and labels:
Assay in all cases: Test C pre-/postemergence plant response
Assay type in all cases: in vivo
Details in all cases: Preemergence
[1] = system: windgrass (Apera spica-venti)
Source text: (§1) Seeds of plant species selected from annual bluegrass (Poa annua), blackgrass (Alopecurus myosuroides), canola (Brassica rapa), downy bromegrass (Bromus tectorum), green foxtail (Setaria viridis), Italian ryegrass (Lolium multiflorum), canarygrass (Phalaris minor), pigweed (Amaranthus retroflexus), spring barley (Hordeum vulgare), spring wheat (Triticum aestivum), wild mustard (Sinapis arvensis), wild oat (Avena fatua), windgrass (Apera spica-venti), winter barley (Hordeum vulgare), and winter wheat (Triticum aestivum) were planted and treated preemergence with test chemicals formulated in a non-phytotoxic solvent mixture which included a surfactant. At the same time, plants selected from these crop and weed species were treated with postemergence applications of some of the test chemicals formulated in the same manner. Plants ranged in height from 2 to 18 cm (1- to 4-leaf stage) for postemergence treatments.
(§2) Treated plants and controls were maintained in a controlled growth environment for 15 to 25 days after which time all species were compared to controls and visually evaluated. Plant response ratings, summarized in Table C, are based on a scale of 0 to 100 where 0 is no effect and 100 is complete control. A dash (-) response means no test result.

[2] = system: winter wheat (Triticum aestivum)
Source text: as §1, §2

[3] = system: canarygrass (Phalaris minor)
Source text: as §1, §2

[4] = system: downy bromegrass (Bromus tectorum)
Source text: as §1, §2

[5] = system: wild mustard (Sinapis arvensis)
Source text: as §1, §2

[6] = system: blackgrass (Alopecurus myosuroides)
Source text: as §1, §2

wild oat (Avena fatua) = system: wild oat (Avena fatua)
Source text: as §1, §2

[7] = system: spring wheat (Triticum aestivum)
Source text: as §1, §2

[8] = system: winter barley (Hordeum vulgare)
Source text: as §1, §2

[9] = system: Italian ryegrass (Lolium multiflorum)
Source text: as §1, §2

[10] = system: green foxtail (Setaria viridis)
Source text: as §1, §2

[11] = system: pigweed (Amaranthus retroflexus)
Source text: as §1, §2

[12] = system: annual bluegrass (Poa annua)
Source text: as §1, §2

[13] = system: spring barley (Hordeum vulgare)
Source text: as §1, §2

[14] = 8 g ai/ha, scale 0 to 100 (0 no effect, 100 complete control)
[15] = 16 g ai/ha, scale 0 to 100 (0 no effect, 100 complete control)
[16] = 31 g ai/ha, scale 0 to 100 (0 no effect, 100 complete control)
[17] = 62 g ai/ha, scale 0 to 100, 0 no effect, 100 complete control

Cc1cc(-c2ccc(Cl)cc2)nn1-c1c(OS(=O)(=O)c2ccccc2[N+](=O)[O-])cnn(C)c1=O [Compound 51]
Plant response rating, Windgrass [1, 14]: 0
Plant response rating, Windgrass [1, 15]: 10
Plant response rating, Windgrass [1, 16]: 20
Plant response rating, Windgrass [1, 17]: 80
Plant response rating, Wheat, Winter [2, 14]: 0
Plant response rating, Wheat, Winter [2, 15]: 0
Plant response rating, Wheat, Winter [2, 16]: 0
Plant response rating, Wheat, Winter [2, 17]: 40
Plant response rating, Canarygrass [3, 14]: 0
Plant response rating, Canarygrass [3, 15]: 0
Plant response rating, Canarygrass [3, 16]: 80
Plant response rating, Canarygrass [3, 17]: 90
Plant response rating, Bromegrass, Downy [4, 14]: 0
Plant response rating, Bromegrass, Downy [4, 15]: 0
Plant response rating, Bromegrass, Downy [4, 16]: 0
Plant response rating, Bromegrass, Downy [4, 17]: 50
Plant response rating, Mustard, Wild [5, 15]: 0
Plant response rating, Mustard, Wild [5, 16]: 0
Plant response rating, Mustard, Wild [5, 17]: 0
Plant response rating, Blackgrass [6, 14]: 0
Plant response rating, Blackgrass [6, 15]: 35
Plant response rating, Blackgrass [6, 16]: 100
Plant response rating, Blackgrass [6, 17]: 100
Plant response rating, Oat, Wild (wild oat (Avena fatua); [14]): 0
Plant response rating, Oat, Wild (wild oat (Avena fatua); [15]): 0
Plant response rating, Oat, Wild (wild oat (Avena fatua); [16]): 35
Plant response rating, Oat, Wild (wild oat (Avena fatua); [17]): 50
Plant response rating, Wheat, Spring [7, 14]: 0
Plant response rating, Wheat, Spring [7, 15]: 0
Plant response rating, Wheat, Spring [7, 16]: 60
Plant response rating, Wheat, Spring [7, 17]: 75
Plant response rating, Barley, Winter [8, 14]: 0
Plant response rating, Barley, Winter [8, 15]: 0
Plant response rating, Barley, Winter [8, 16]: 0
Plant response rating, Barley, Winter [8, 17]: 40
Plant response rating, Ryegrass, Italian [9, 14]: 0
Plant response rating, Ryegrass, Italian [9, 15]: 90
Plant response rating, Ryegrass, Italian [9, 17]: 90
Plant response rating, Foxtail, Green [10, 14]: 10
Plant response rating, Foxtail, Green [10, 15]: 80
Plant response rating, Foxtail, Green [10, 16]: 100
Plant response rating, Foxtail, Green [10, 17]: 100
Plant response rating, Pigweed [11, 14]: 0
Plant response rating, Pigweed [11, 15]: 0
Plant response rating, Pigweed [11, 16]: 0
Plant response rating, Pigweed [11, 17]: 0
Plant response rating, Bluegrass [12, 14]: 0
Plant response rating, Bluegrass [12, 15]: 0
Plant response rating, Bluegrass [12, 16]: 0
Plant response rating, Bluegrass [12, 17]: 10
Plant response rating, Barley, Spring [13, 14]: 0
Plant response rating, Barley, Spring [13, 15]: 15
Plant response rating, Barley, Spring [13, 16]: 20
Plant response rating, Barley, Spring [13, 17]: 70

C#CCOC(=O)Oc1cnn(C)c(=O)c1-n1nc(-c2ccc(Cl)cc2)cc1C [Compound 58]
Plant response rating, Windgrass [1, 14]: 0
Plant response rating, Windgrass [1, 15]: 20
Plant response rating, Windgrass [1, 16]: 50
Plant response rating, Windgrass [1, 17]: 70
Plant response rating, Wheat, Winter [2, 14]: 0
Plant response rating, Wheat, Winter [2, 15]: 0
Plant response rating, Wheat, Winter [2, 16]: 60
Plant response rating, Wheat, Winter [2, 17]: 80
Plant response rating, Canarygrass [3, 14]: 0
Plant response rating, Canarygrass [3, 15]: 60
Plant response rating, Canarygrass [3, 16]: 90
Plant response rating, Canarygrass [3, 17]: 95
Plant response rating, Bromegrass, Downy [4, 14]: 0
Plant response rating, Bromegrass, Downy [4, 15]: 15
Plant response rating, Bromegrass, Downy [4, 16]: 70
Plant response rating, Bromegrass, Downy [4, 17]: 75
Plant response rating, Mustard, Wild [5, 14]: 0
Plant response rating, Mustard, Wild [5, 15]: 0
Plant response rating, Mustard, Wild [5, 17]: 0
Plant response rating, Blackgrass [6, 14]: 0
Plant response rating, Blackgrass [6, 15]: 65
Plant response rating, Blackgrass [6, 16]: 98
Plant response rating, Blackgrass [6, 17]: 100
Plant response rating, Oat, Wild (wild oat (Avena fatua); [14]): 0
Plant response rating, Oat, Wild (wild oat (Avena fatua); [15]): 50
Plant response rating, Oat, Wild (wild oat (Avena fatua); [16]): 65
Plant response rating, Oat, Wild (wild oat (Avena fatua); [17]): 75
Plant response rating, Wheat, Spring [7, 14]: 0
Plant response rating, Wheat, Spring [7, 15]: 50
Plant response rating, Wheat, Spring [7, 16]: 60
Plant response rating, Wheat, Spring [7, 17]: 90
Plant response rating, Barley, Winter [8, 14]: 0
Plant response rating, Barley, Winter [8, 15]: 0
Plant response rating, Barley, Winter [8, 16]: 0
Plant response rating, Barley, Winter [8, 17]: 75
Plant response rating, Ryegrass, Italian [9, 14]: 25
Plant response rating, Ryegrass, Italian [9, 15]: 65
Plant response rating, Ryegrass, Italian [9, 16]: 100
Plant response rating, Ryegrass, Italian [9, 17]: 100
Plant response rating, Foxtail, Green [10, 14]: 35
Plant response rating, Foxtail, Green [10, 15]: 98
Plant response rating, Foxtail, Green [10, 16]: 100
Plant response rating, Foxtail, Green [10, 17]: 100
Plant response rating, Pigweed [11, 14]: 0
Plant response rating, Pigweed [11, 17]: 0
Plant response rating, Bluegrass [12, 14]: 0
Plant response rating, Bluegrass [12, 15]: 0
Plant response rating, Bluegrass [12, 16]: 0
Plant response rating, Bluegrass [12, 17]: 0
Plant response rating, Barley, Spring [13, 14]: 0
Plant response rating, Barley, Spring [13, 15]: 0
Plant response rating, Barley, Spring [13, 16]: 10
Plant response rating, Barley, Spring [13, 17]: 75
